Laboratory results from ChEMBL document CHEMBL1615345, “Evaluation of a published in silico model and construction of a novel Bayesian model for predicting phospholipidosis inducing potential” (J Chem Inf Model, 2007).

These compounds were tested on Phospholipidosis. Conditions: not given.

SMILES | Phospholipidosis
CN(C)C(=N)N=C(N)N [METFORMIN] | Not Active
CN(Cc1cnc2nc(N)nc(N)c2n1)c1ccc(C(=O)N[C@@H](CCC(=O)O)C(=O)O)cc1 [METHOTREXATE] | Not Active
Cc1cn([C@H]2C[C@H](N=[N+]=[N-])[C@@H](CO)O2)c(=O)[nH]c1=O [ZIDOVUDINE] | Not Active
CN(C)[C@@H]1C(O)=C(C(N)=O)C(=O)[C@@]2(O)C(O)=C3C(=O)c4c(O)ccc(Cl)c4[C@@H](O)[C@H]3C[C@@H]12 [DEMECLOCYCLINE] | Not Active
CC(=O)N(O)CCCCCNC(=O)CCC(=O)N(O)CCCCCNC(=O)CCC(=O)N(O)CCCCCN [DEFEROXAMINE] | Not Active
COc1cc([C@@H]2c3cc4c(cc3[C@@H](O[C@@H]3O[C@@H]5CO[C@@H](C)O[C@H]5[C@H](O)[C@H]3O)[C@H]3COC(=O)[C@H]23)OCO4)cc(OC)c1O [ETOPOSIDE] | Not Active
CC(=N)S [THIOACETAMIDE] | Not Active
N=C(N)NCCCCCCCCCCNC(=N)N [SYNTHALIN] | Not Active
CN(C)[C@@H]1C(O)=C(C(=O)NCN2CCCC2)C(=O)[C@@]2(O)C(O)=C3C(=O)c4c(O)cccc4[C@@](C)(O)[C@H]3C[C@@H]12 [ROLITETRACYCLINE] | Not Active
CC(=O)Nc1ccc(O)cc1 [ACETAMINOPHEN] | Not Active
CC(C)OC(=O)C(C)(C)Oc1ccc(C(=O)c2ccc(Cl)cc2)cc1 [FENOFIBRATE] | Not Active
COc1cc2c(cc1OC)C(=O)C(CC1CCN(Cc3ccccc3)CC1)C2 (stereo not drawn) [DONEPEZIL] | Not Active
ClC(Cl)(Cl)Cl [CARBON TETRACHLORIDE] | Not Active
CC(=O)Oc1ccccc1C(=O)O [ASPIRIN] | Not Active
S=C=Nc1cccc2ccccc12 [1-NAPHTHYLISOTHIOCYANATE] | Not Active
ClC(Cl)Cl [CHLOROFORM] | Not Active
Cn1nnc2c(C(N)=O)ncn2c1=O [TEMOZOLOMIDE] | Not Active
Nc1c2c(nc3ccccc13)CCCC2 [TACRINE] | Not Active
O=C1CN(/N=C/c2ccc(-c3ccc([N+](=O)[O-])cc3)o2)C(O)=N1 [DANTROLENE] | Not Active
CCN1CC(CCN2CCOCC2)C(c2ccccc2)(c2ccccc2)C1=O (stereo not drawn) [DOXAPRAM] | Not Active
Cl.Cl.O=C(CCN1CCN2CCCC2C1)N1c2ccccc2Sc2ccc(Cl)cc21 (stereo not drawn) [AZACLORZINE HYDROCHLORIDE] | Not Active

SMILES | Phospholipidosis
CC(=O)O[C@]1(C(C)=O)CC[C@H]2[C@@H]3C=C(Cl)C4=CC(=O)[C@@H]5C[C@@H]5[C@]4(C)[C@H]3CC[C@@]21C [CYPROTERONE ACETATE] | Not Active
NN [HYDRAZINE] | Not Active
C[C@](N)(Cc1ccc(O)c(O)c1)C(=O)O [METHYLDOPA] | Not Active
CCOC(=O)C(C)(C)Oc1ccc(Cl)cc1 [CLOFIBRATE] | Not Active
Nc1nc(NC2CC2)c2ncn([C@H]3C=C[C@@H](CO)C3)c2n1 [ABACAVIR] | Not Active
Cc1cn([C@H]2C=C[C@@H](CO)O2)c(=O)[nH]c1=O [STAVUDINE] | Not Active
N[C@H]1C(O)O[C@H](CO)[C@@H](O)[C@@H]1O (stereo partly drawn) [GLUCOSAMINE] | Not Active
CC(C)C(=O)Nc1ccc([N+](=O)[O-])c(C(F)(F)F)c1 [FLUTAMIDE] | Not Active
[N-]=[N+]=CC(=O)OC[C@H](N)C(=O)O [AZASERINE] | Not Active
O=C(O)c1cc(-c2ccc(F)cc2F)ccc1O [DIFLUNISAL] | Not Active
NC(=O)OCC(COC(N)=O)c1ccccc1 [FELBAMATE] | Not Active
C=C1C[C@@H]1C[C@H](N)C(=O)O | Not Active
CCN(CC)CCOC(=O)c1ccc(N)cc1 [PROCAINE] | Not Active
Cc1ccc(C)c(OCCCC(C)(C)C(=O)O)c1 [GEMFIBROZIL] | Not Active
COc1cc2c(c(OC)c1OC)-c1ccc(OC)c(=O)cc1[C@@H](NC(C)=O)CC2 [COLCHICINE] | Not Active
CN1C(C(=O)Nc2ccccn2)=C(O)c2ccccc2S1(=O)=O [PIROXICAM] | Not Active
CCSCC[C@H](N)C(=O)O [ETHIONINE] | Not Active
CCCC(CCC)C(=O)[O-].[Na+] [VALPROATE SODIUM] | Not Active
CC(NC(C)(C)C)C(=O)c1cccc(Cl)c1 (stereo not drawn) [BUPROPION] | Not Active
CCC(=O)C(CC(C)N(C)C)(c1ccccc1)c1ccccc1 (stereo not drawn) [METHADONE] | Not Active
C[C@H]1c2cccc(O)c2C(=O)C2=C(O)[C@]3(O)C(=O)C(C(N)=O)=C(O)[C@@H](N(C)C)[C@@H]3[C@@H](O)[C@@H]21.O [DOXYCYCLINE] | Not Active

SMILES | Phospholipidosis
NC(=O)N1c2ccccc2C=Cc2ccccc21 [CARBAMAZEPINE] | Not Active
CC(O)(CS(=O)(=O)c1ccc(F)cc1)C(=O)Nc1ccc(C#N)c(C(F)(F)F)c1 (stereo not drawn) [BICALUTAMIDE] | Not Active
CC(C)(Oc1ccc(C2CC2(Cl)Cl)cc1)C(=O)O (stereo not drawn) [CIPROFIBRATE] | Not Active
CC(c1cc2ccccc2s1)N(O)C(N)=O (stereo not drawn) [ZILEUTON] | Not Active
CO[C@H]1/C=C/O[C@@]2(C)Oc3c(C)c(O)c4c(O)c(c(/C=N/N5CCN(C)CC5)c(O)c4c3C2=O)NC(=O)/C(C)=C\C=C\[C@H](C)[C@H](O)[C@@H](C)[C@@H](O)[C@@H](C)[C@H](OC(C)=O)[C@@H]1C [RIFAMPIN] | Not Active
CN(C)[C@@H]1C(O)=C(C(N)=O)C(=O)[C@@]2(O)C(O)=C3C(=O)c4c(O)ccc(Cl)c4[C@@](C)(O)[C@H]3C[C@@H]12 [CHLORTETRACYCLINE] | Not Active
NC(=O)NO [HYDROXYUREA] | Not Active
CCC1(c2ccccc2)C(=O)NC(=O)NC1=O [PHENOBARBITAL] | Not Active
O=C(O)Cc1ccccc1Nc1c(Cl)cccc1Cl [DICLOFENAC] | Not Active
C#C[C@]1(O)CC[C@H]2[C@@H]3CCc4cc(O)ccc4[C@H]3CC[C@@]21C [ETHINYL ESTRADIOL] | Not Active
CC(C)(O/N=C(\C(=O)N[C@@H]1C(=O)N2C(C(=O)[O-])=C(C[n+]3ccccc3)CS[C@H]12)c1csc(N)n1)C(=O)O [CEFTAZIDIME] | Not Active
Cn1c(=O)c2c(ncn2C)n(C)c1=O [CAFFEINE] | Not Active
Cc1cccc(Nc2cc(Cl)nc(SCC(=O)O)n2)c1C [PIRINIXIC ACID] | Not Active
CNC(=O)Oc1ccc2c(c1)[C@]1(C)CCN(C)[C@@H]1N2C [PHYSOSTIGMINE] | Not Active
CC1=C(CC(=O)O)c2cc(F)ccc2/C1=C\c1ccc([S+](C)[O-])cc1 (stereo not drawn) | Not Active
O=C(O)CCCCCCNC1c2ccccc2CCc2ccccc21 [AMINEPTINE] | Not Active
CN(C)CCN(Cc1cccs1)c1ccccn1 | Not Active
NC(N)=Nc1nc(CSCCC(N)=NS(N)(=O)=O)cs1 [FAMOTIDINE] | Not Active
Cc1ccc2cc3c(ccc4ccccc43)c3c2c1CC3 [3-METHYLCHOLANTHRENE] | Not Active

What follows are compounds tested on Phospholipidosis. Conditions: rat.

SMILES | Phospholipidosis
CN(C)CCCC1c2ccccc2Nc2ccc(Cl)cc21 (stereo not drawn) [CLOMACRAN] | Active
NC[C@H]1Cc2ccc(F)cc2[C@@H](c2ccccc2)O1 | Active
CC[C@H]1CN2CCc3cc(OC)c(OC)cc3[C@@H]2C[C@@H]1C[C@H]1NCCc2cc(OC)c(OC)cc21 [EMETINE] | Active
CN(C)CCCC1(c2ccc(F)cc2)OCc2cc(C#N)ccc21 (stereo not drawn) [CITALOPRAM] | Active
NC[C@@H]1CC[C@@H](N)[C@@H](O[C@H]2[C@H](O)[C@@H](O[C@H]3O[C@H](CO)[C@@H](O)[C@H](N)[C@H]3O)[C@H](N)C[C@@H]2N)O1 [DIBEKACIN] | Active
CN1CCN(C2=Nc3cc(Cl)ccc3Nc3ccccc32)CC1 [CLOZAPINE] | Active
CN1CCCN(C(c2ccccc2)c2ccc(Cl)cc2)CC1 (stereo not drawn) [HOMOCHLORCYCLIZINE] | Active
NCCc1cc(O)c(O)cc1O [OXIDOPAMINE] | Active
CCN(CC)CCCC(C)Nc1c2ccc(Cl)cc2nc2ccc(OC)cc12 (stereo not drawn) [QUINACRINE] | Active
CN1CCN(Cc2nc3cccc4c3c([n+]2[O-])-c2ccccc2-4)CC1 | Active
CCN(CC)CCn1nc2c3c(c(C)ccc31)Sc1cc(Cl)ccc1-2 | Active
Cc1ccc(C(=O)Nc2ccc(S(=O)(=O)O)c3cc(S(=O)(=O)O)cc(S(=O)(=O)O)c23)cc1NC(=O)c1cccc(NC(=O)Nc2cccc(C(=O)Nc3cc(C(=O)Nc4ccc(S(=O)(=O)O)c5cc(S(=O)(=O)O)cc(S(=O)(=O)O)c45)ccc3C)c2)c1 [SURAMIN] | Active
Clc1ccc(C(c2ccccc2)N2CCNCC2)cc1 (stereo not drawn) [NORCHLORCYCLIZINE] | Active
FC(F)(F)c1ccc(-c2ccc(OCCN3CCCC3)cc2)cc1 [BOXIDINE] | Active
CN1CCN(C(c2ccccc2)c2ccccc2)CC1 [CYCLIZINE] | Active
Cc1cccc(CN2CCN(C(c3ccccc3)c3ccc(Cl)cc3)CC2)c1 (stereo not drawn) [MECLIZINE] | Active
CC/C(=C(\c1ccccc1)c1ccc(OCCN(C)C)cc1)c1ccccc1 [TAMOXIFEN] | Active
CN(C)CCC=C1c2ccccc2CCc2ccccc21 [AMITRIPTYLINE] | Active
O=C(NC1CCN(CCc2c[nH]c3ccccc23)CC1)c1ccccc1 [INDORAMIN] | Active
CN(C)CCC=C1c2ccccc2CCc2c(Cl)cccc21 | Active
CNCCCC12CCC(c3ccccc31)c1ccccc12 [MAPROTILINE] | Active
CN(C)CCCn1c2c(c3ccccc31)CCCCCC2 [IPRINDOLE] | Active
